According to patent US6660742B2, “Compositions and methods of the use thereof achiral analogues of CC-1065 and the duocarmycins” (priority 2000, dated 2003):
Like-named read-outs stand apart in the source and are kept apart here.

Legend:
MDA-MB-435 = assay: NCI screen, MDA-MB-435 (Breast Cancer); format: cell-based, human
Description: (§1) The compounds of this invention were also tested against the panel of 60 human cancer cell lines at the National Cancer Institute, Bethesda, Md. […] The cytrotoxicity studies were conducted using a 48 hour exposure, and measuring the optical density of sulforhodamide B-derived color.

HCC-2998 = assay: NCI screen, HCC-2998 (Colon Cancer)
Description: as §1

MOLT-4 = assay: NCI screen, MOLT-4 (Leukemia)
Description: as §1

OVCAR-8 = assay: NCI screen, OVCAR-8 (Ovarian Cancer); conditions: OVCAR-8, 48 hour exposure
Description: (§2) The compounds of this invention were also tested against the panel of 60 human cancer cell lines at the National Cancer Institute, Bethesda, Md. (44). The cytrotoxicity studies were conducted using a 48 hour exposure, and measuring the optical density of sulforhodamide B-derived color.

SF-539 = assay: NCI screen, SF-539 (CNS Cancer)
Description: as §1

HCT-116 = assay: NCI screen, HCT-116 (Colon Cancer); conditions: HCT-116, 48 hour exposure
Description: as §1

SK-MEL-28 = assay: NCI screen, SK-MEL-28 (Melanoma)
Description: as §1

786-0 = assay: NCI screen, 786-0 (Renal Cancer)
Description: as §1

M14 = assay: NCI screen, M14 (Melanoma); conditions: M14, 48 hour exposure
Description: as §1

NCI-H322M = conditions: NCI-H322M; Log10 Concentration −5.3; 48 hour exposure
ACHN = format: cell-based, human
[1] = tested on: panel of 60 human cancer cell lines; assay: NCI in-vitro cytotoxicity screen, whole panel; format: cell-based
UACC-257 = assay: NCI screen, UACC-257 (Melanoma)
Description: as §1

EKVX = assay: NCI screen, EKVX (Non-Small Cell Lung Cancer)
Description: as §1

U251 = assay: NCI screen, U251 (CNS Cancer); conditions: U251, 48 hour exposure
Description: as §1

SW-620 = assay: NCI screen, SW-620 (Colon Cancer); format: cell-based, human
Description: as §1

SK-OV-3 = assay: NCI screen, SK-OV-3 (Ovarian Cancer)
Description: as §1

MCF7/ADR-RES = assay: NCI screen, MCF7/ADR-RES (Breast Cancer); format: cell-based, human; conditions: NCI/ADR-RES, 48 hour exposure
Description: as §1

SNB-75 = assay: NCI screen, SNB-75 (CNS Cancer); conditions: SNB-75, 48 hour exposure
Description: as §1

BT-549 = assay: NCI screen, BT-549 (Breast Cancer); conditions: BT-549, 48 hour exposure
Description: as §2

SF-268 = assay: NCI screen, SF-268 (CNS Cancer); conditions: SF-268, 48 hour exposure
Description: as §2

[2] = Log10 Concentration −4.3, 48 hour exposure
[3] = Log10 Concentration −5.3, 48 hour exposure
[4] = Log10 Concentration −6.3, 48 hour exposure
[5] = Log10 Concentration −7.3, 48 hour exposure
[6] = Log10 Concentration −8.3, 48 hour exposure

## COC(=O)c1[nH]c2c(O)cc(NC(=O)c3cc4cc(OC)c(OC)c(OC)c4[nH]3)c(CCCl)c2c1C(=O)OC [Compound 22, Dimethyl 4-(2-chloroethyl)-7-hydroxy-5-(5,6,7-trimethoxyindole-2-carboxamido)indole-2,3-dicarboxylate]
MDA-MB-435; 48 hour exposure
  TGI: 3.95E−07 Molar
MDA-MB-435; [2]
  Percent Growth: −32%
MDA-MB-435; [3]
  Percent Growth: −28%
MDA-MB-435; [4]
  Percent Growth: −11%
MDA-MB-435; [5]
  Percent Growth: 97%
MDA-MB-435; [6]
  Percent Growth: 96%
HCC-2998; 48 hour exposure
  TGI: 2.89E−07 Molar
HCC-2998; [2]
  Percent Growth: −88%
HCC-2998; [3]
  Percent Growth: −31%
HCC-2998; [4]
  Percent Growth: −27%
HCC-2998; [5]
  Percent Growth: 85%
HCC-2998; [6]
  Percent Growth: 91%
HOP-92; 48 hour exposure
  TGI: 2.57E−06 Molar
HOP-92; [2]
  Percent Growth: −38%
HOP-92; [3]
  Percent Growth: −5%
HOP-92; [4]
  Percent Growth: 12%
HOP-92; [5]
  Percent Growth: 97%
HOP-92; [6]
  Percent Growth: 101%
MOLT-4; 48 hour exposure
  TGI: >5.00E−05 Molar
MOLT-4; [2]
  Percent Growth: 22%
MOLT-4; [3]
  Percent Growth: 20%
MOLT-4; [4]
  Percent Growth: 21%
MOLT-4; [5]
  Percent Growth: 28%
MOLT-4; [6]
  Percent Growth: 61%
OVCAR-8
  TGI: 2.33E−07 Molar
OVCAR-8; Log10 Concentration −4.3
  Percent Growth: −64%
OVCAR-8; Log10 Concentration −5.3
  Percent Growth: −65%
OVCAR-8; Log10 Concentration −6.3
  Percent Growth: −32%
OVCAR-8; Log10 Concentration −7.3
  Percent Growth: 65%
OVCAR-8; Log10 Concentration −8.3
  Percent Growth: 86%
SF-539; 48 hour exposure
  TGI: 2.07E−07 Molar
SF-539; [2]
  Percent Growth: −90%
SF-539; [3]
  Percent Growth: −84%
SF-539; [4]
  Percent Growth: −47%
SF-539; [5]
  Percent Growth: 75%
SF-539; [6]
  Percent Growth: 89%
HCT-116
  TGI: 1.95E−07 Molar
HCT-116; Log10 Concentration −4.3
  Percent Growth: −59%
HCT-116; Log10 Concentration −5.3
  Percent Growth: −9%
HCT-116; Log10 Concentration −6.3
  Percent Growth: −43%
HCT-116; Log10 Concentration −7.3
  Percent Growth: 62%
HCT-116; Log10 Concentration −8.3
  Percent Growth: 88%
SK-MEL-28; 48 hour exposure
  TGI: 1.82E−06 Molar
SK-MEL-28; [2]
  Percent Growth: −43%
SK-MEL-28; [3]
  Percent Growth: −11%
SK-MEL-28; [4]
  Percent Growth: 14%
SK-MEL-28; [5]
  Percent Growth: 92%
SK-MEL-28; [6]
  Percent Growth: 91%
786-0; 48 hour exposure
  TGI: 4.92E−07 Molar
786-0; [2]
  Percent Growth: −50%
786-0; [3]
  Percent Growth: −26%
786-0; [4]
  Percent Growth: −1%
786-0; [5]
  Percent Growth: 82%
786-0; [6]
  Percent Growth: 94%
M14
  TGI: 1.68E−07 Molar
M14; Log10 Concentration −4.3
  Percent Growth: −92%
M14; Log10 Concentration −5.3
  Percent Growth: −90%
M14; Log10 Concentration −6.3
  Percent Growth: −69%
M14; Log10 Concentration −7.3
  Percent Growth: 77%
M14; Log10 Concentration −8.3
  Percent Growth: 105%
NCI-H322M
  Percent Growth: −8%
ACHN
  TGI: 5.95E−06 Molar
[1]; 48 hour exposure
  range of activity: micromolar range
[1]; leukemia cells
  activity against leukemia cells: none of these compounds showed much activity
[1]; melanoma cells
  activity against melanoma cells: active
[1]; solid tumors cells
  activity against solid tumors cells: strong activity
UACC-257; 48 hour exposure
  TGI: 2.25E−05 Molar
UACC-257; [2]
  Percent Growth: −10%
UACC-257; [3]
  Percent Growth: 19%
UACC-257; [4]
  Percent Growth: 6%
UACC-257; [5]
  Percent Growth: 99%
UACC-257; [6]
  Percent Growth: 101%
EKVX; 48 hour exposure
  TGI: 5.14E−07 Molar
EKVX; [2]
  Percent Growth: −83%
EKVX; [3]
  Percent Growth: −62%
EKVX; [4]
  Percent Growth: 1%
EKVX; [5]
  Percent Growth: 102%
EKVX; [6]
  Percent Growth: 102%
U251
  TGI: 8.44E−06 Molar
U251; Log10 Concentration −4.3
  Percent Growth: −40%
U251; Log10 Concentration −5.3
  Percent Growth: 12%
U251; Log10 Concentration −6.3
  Percent Growth: 11%
U251; Log10 Concentration −7.3
  Percent Growth: 74%
U251; Log10 Concentration −8.3
  Percent Growth: 89%
SW-620; 48 hour exposure
  TGI: 1.90E−05 Molar
SW-620; [2]
  Percent Growth: −11%
SW-620; [3]
  Percent Growth: 16%
SW-620; [4]
  Percent Growth: 9%
SW-620; [5]
  Percent Growth: 71%
SW-620; [6]
  Percent Growth: 86%
SK-OV-3; 48 hour exposure
  TGI: 8.81E−06 Molar
SK-OV-3; [2]
  Percent Growth: −54%
SK-OV-3; [3]
  Percent Growth: 17%
SK-OV-3; [4]
  Percent Growth: 35%
SK-OV-3; [5]
  Percent Growth: 90%
SK-OV-3; [6]
  Percent Growth: 103%
MCF7/ADR-RES
  TGI: 8.17E−07 Molar
MCF7/ADR-RES; Log10 Concentration −4.3
  Percent Growth: −41%
MCF7/ADR-RES; Log10 Concentration −5.3
  Percent Growth: −58%
MCF7/ADR-RES; Log10 Concentration −6.3
  Percent Growth: 16%
MCF7/ADR-RES; Log10 Concentration −7.3
  Percent Growth: 77%
MCF7/ADR-RES; Log10 Concentration −8.3
  Percent Growth: 97%
SNB-75
  TGI: 1.90E−07 Molar
SNB-75; Log10 Concentration −4.3
  Percent Growth: −51%
SNB-75; Log10 Concentration −5.3
  Percent Growth: −84%
SNB-75; Log10 Concentration −6.3
  Percent Growth: −44%
SNB-75; Log10 Concentration −7.3
  Percent Growth: 60%
SNB-75; Log10 Concentration −8.3
  Percent Growth: 77%
BT-549
  TGI: 1.23E−05 Molar
BT-549; Log10 Concentration −4.3
  Percent Growth: −39%
BT-549; Log10 Concentration −5.3
  Percent Growth: 25%
BT-549; Log10 Concentration −6.3
  Percent Growth: 42%
BT-549; Log10 Concentration −7.3
  Percent Growth: 85%
BT-549; Log10 Concentration −8.3
  Percent Growth: 91%
SF-268
  TGI: 8.40E−08 Molar
SF-268; Log10 Concentration −4.3
  Percent Growth: −58%
SF-268; Log10 Concentration −5.3
  Percent Growth: −63%
SF-268; Log10 Concentration −6.3
  Percent Growth: −42%
SF-268; Log10 Concentration −7.3
  Percent Growth: 12%
SF-268; Log10 Concentration −8.3
  Percent Growth: 80%
